Laboratory results: ChEMBL document CHEMBL5241090, “A comprehensive overview of β-carbolines and its derivatives as anticancer agents” (Eur J Med Chem, 2021)
In brackets after ≈: the same amount, converted by molar mass.

Columns and labels:
1A9 = assay: Cytotoxicity against human 1A9 cells by SRB assay; format: functional, cell-based
MCF7 [1] = assay: Cytotoxicity against human MCF7 cells by SRB assay; format: functional, cell-based
SAOS-2 = assay: Cytotoxicity against human SAOS-2 cells by SRB assay; format: functional, cell-based
SK-MEL-2 = assay: Cytotoxicity against human SK-MEL-2 cells by SRB assay; format: functional, cell-based
A549 [2] = assay: Cytotoxicity against human A549 cells by SRB assay; format: functional, cell-based
KB [3] = assay: Cytotoxicity against human KB cells by SRB assay; format: functional, cell-based
[4] = Cytotoxicity against human U-87 MG cells by SRB assay; format: functional, cell-based, U-87MG ATCC
KB [5] = assay: Cytotoxicity against human KB cells; format: functional, cell-based
LoVo [6] = assay: Cytotoxicity against human LoVo cells; format: functional, cell-based
LoVo [7] = assay: Cytotoxicity against human LoVo cells by MTT assay; format: functional
HT-29 [8] = assay: Cytotoxicity against human HT-29 cells by MTT assay; format: functional, cell-based
PC-3 [9] = assay: Cytotoxicity against human PC-3 cells by MTT assay; format: functional, cell-based
B16 = assay: Cytotoxicity against mouse B16 cells by MTT assay; format: functional, cell-based
HeLa [10] = assay: Cytotoxicity against human HeLa cells by MTT assay; format: functional, cell-based
HL-60(TB) = assay: Antiproliferative activity against human HL-60(TB) cells; format: functional, cell-based
K562 = assay: Cytotoxicity against human K562 cells; format: functional, cell-based
Breast carcinoma cell = assay: Cytotoxicity against human Breast cancer cell line measured after 72 hrs by MTT assay; format: functional, cell-based
[11] = Cytotoxicity against human Pancreatic cancer cell measured after 72 hrs by MTT assay; format: functional, cell-based
NCI-H460 [12] = assay: Antiproliferative activity against human NCI-H460 cells assessed as cell viability incubated for 24 hrs by MTT assay; format: functional, cell-based; settings: NCI-H460, 24 h
HCT-116 [13] = assay: Antiproliferative activity against human HCT-116 cells assessed as cell viability incubated for 24 hrs by MTT assay; format: functional, cell-based; settings: HCT-116, 24 h
T47D [14] = assay: Antiproliferative activity against human T47D cells assessed as cell viability incubated for 48 hrs by MTT assay; format: functional, cell-based
NCI-H460 [15] = assay: Antiproliferative activity against human NCI-H460 cells assessed as cell viability incubated for 48 hrs by MTT assay; format: functional, cell-based; settings: NCI-H460, 48 h
T47D [16] = assay: Antiproliferative activity against human T47D cells assessed as cell viability incubated for 24 hrs by MTT assay; format: functional, cell-based
HT-29 [17] = assay: Cytotoxicity against human HT-29 cells measured after 48 hrs by MTT assay; format: functional, cell-based; settings: HT-29, 48 h
PC-3 [18] = assay: Cytotoxicity against human PC-3 cells measured after 48 hrs by MTT assay; format: functional, cell-based; settings: PC-3, 48 h
MCF7 [19] = assay: Cytotoxicity against human MCF7 cells measured after 48 hrs by MTT assay; format: functional, cell-based; settings: MCF7, 48 h
HeLa [20] = assay: Cytotoxicity against human HeLa cells measured after 48 hrs by MTT assay; format: functional, cell-based
HGC-27 = assay: Cytotoxicity against human HGC-27 cells measured after 48 hrs by MTT assay; format: functional, cell-based; settings: HGC-27, 48 h
769-P = assay: Cytotoxicity against human 769-P cells assessed as cell viability incubated for 1 hr by spectrophotometry; format: functional, cell-based
HepG2 [21] = assay: Cytotoxicity against human HepG2 cells assessed as cell viability incubated for 1 hr by spectrophotometry; format: functional, cell-based; settings: HepG2, 1 h
LoVo [22] = assay: Cytotoxicity against human LoVo cells assessed as cell viability incubated for 1 hr by spectrophotometry; format: functional, cell-based
HT-29 [23] = assay: Cytotoxicity against human HT-29 cells assessed as cell viability incubated for 1 hr by spectrophotometry; format: functional, cell-based; settings: HT-29, 1 h
KB [24] = assay: Cytotoxicity against human KB cells assessed as cell viability incubated for 1 hr by spectrophotometry; format: functional, cell-based
786-0 = assay: Cytotoxicity against human 786-0 cells assessed as cell viability incubated for 1 hr by spectrophotometry; format: functional, cell-based; settings: 786-0, 1 h
HeLa [25] = assay: Cytotoxicity against human HeLa cells assessed as cell viability incubated for 1 hr by spectrophotometry; format: functional, cell-based
Bel-7402 = assay: Cytotoxicity against human Bel-7402 cells assessed as cell viability incubated for 1 hr by spectrophotometry; format: functional, cell-based; settings: Bel-7402, 1 h
A549 [26] = assay: Cytotoxicity against human A549 cells assessed as cell viability incubated for 1 hr by spectrophotometry; format: functional, cell-based; settings: A549, 1 h
BGC-823 = assay: Cytotoxicity against human BGC-823 cells assessed as cell viability incubated for 1 hr by spectrophotometry; format: functional, cell-based; settings: BGC-823, 1 h
A-375 = assay: Cytotoxicity against human A-375 cells assessed as cell viability incubated for 1 hr by spectrophotometry; format: functional, cell-based; settings: A-375, 1 h
HL-60 = assay: Cytotoxicity against human HL-60 cells; format: functional, cell-based; settings: hl-60
[27] = Cytotoxicity against human BGC cells; format: functional, cell-based
SW480 = assay: Cytotoxicity against human SW480 cells by MTT assay; format: functional, cell-based
OVCAR-3 = assay: Cytotoxicity against human OVCAR-3 cells by MTT assay; format: functional, cell-based
HepG2 [28] = assay: Cytotoxicity against human HepG2 cells measured after 48 hrs by MTT assay; format: functional, cell-based; settings: HepG2, 48 h
HCT-116 [29] = assay: Cytotoxicity against human HCT-116 cells measured after 48 hrs by MTT assay; format: functional, cell-based; settings: HCT-116, 48 h
EJ = assay: Cytotoxicity against human EJ cells measured after 48 hrs by MTT assay; format: functional, cell-based
NCI-H460 [30] = assay: Cytotoxicity against human NCI-H460 cells measured after 48 hrs by MTT assay; format: functional, cell-based; settings: NCI-H460, 48 h
SMMC-7721 = assay: Cytotoxicity against human SMMC-7721 cells measured after 48 hrs by MTT assay; format: functional, cell-based; settings: SMMC-7721, 48 h

## COc1ccc2c(c1)[nH]c1c(/C=C/c3ccc([N+](=O)[O-])cc3)nccc12
1A9
  IC50: 0.3 µg/mL (≈ 0.869 µM)
MCF7 [1]
  IC50: 0.3 µg/mL (≈ 0.869 µM)
SAOS-2
  IC50: 0.3 µg/mL (≈ 0.869 µM)
SK-MEL-2
  IC50: 0.3 µg/mL (≈ 0.869 µM)
A549 [2]
  IC50: 0.3 µg/mL (≈ 0.869 µM)
KB [3]
  IC50: 0.3 µg/mL (≈ 0.869 µM)
[4]
  IC50: 0.3 µg/mL (≈ 0.869 µM)

## Oc1cccc2c1[nH]c1c(C3=C[C@@]4(O)CC/C=C\CCCCN5CC[C@@H]3[C@]3(C[C@@H]6/C=C\CCCCN6[C@H]34)C5)nccc12
KB [5]; Homo sapiens, KB, read-out: IC50
  IC50: 0.3 µg/mL
LoVo [6]
  IC50: 0.26 µg/mL (≈ 0.46 µM)

## CCCCn1c2ccccc2c2cc(C(=O)O)ncc21
LoVo [7]
  IC5: 11 µM

## COc1cc(C(=O)/C=C/c2cc3c([nH]c4ccccc43)c(-c3cc(OC)c(OC)c(OC)c3)n2)cc(OC)c1OC
HT-29 [8]
  IC50: 5.3 µM
PC-3 [9]
  IC50: 5.3 µM
B16
  IC50: 5.3 µM
HeLa [10]
  IC50: 5.3 µM

## COc1ccc2[nH]cc(-c3nccc4c3[nH]c3ccc(OC)cc34)c2c1
HL-60(TB)
  IC50: 4.2 µM

## CC[C@H](C)[C@H](NC(=O)[C@H](Cc1c[nH]c2ccccc12)NC(=O)[C@H](Cc1c[nH]c2ccccc12)NC(=O)c1cc2c([nH]c3ccccc32)c(-c2ccc(O)c(OC)c2)n1)C(=O)OCc1ccccc1
K562
  IC50: 12 µM

## COc1ccc2[nH]c3c(-c4cccc5ccccc45)nccc3c2c1
Breast carcinoma cell
  IC50: 0.39 µM
[11]
  IC50: 0.38 µM

## Cc1nccc2c3ccccc3n(CCCCn3c4ccccc4c4ccnc(C)c43)c12
NCI-H460 [12]
  IC50: 10.9 µM
HCT-116 [13]
  IC50: 5.09 µM
T47D [14]
  IC50: 8.22 µM
NCI-H460 [15]
  IC50: 9.58 µM
T47D [16]
  IC50: 9.88 µM

## COc1cc(-c2nc(Cn3cc(CN4C(=O)c5ccccc5C4=O)nn3)cc3c2[nH]c2ccccc23)cc(OC)c1OC
HT-29 [17]
  IC50: 3.67 µM
PC-3 [18]
  IC50: 3.67 µM
MCF7 [19]
  IC50: 3.67 µM
HeLa [20]
  IC50: 3.67 µM
HGC-27
  IC50: 3.67 µM

## COc1ccc(/C=C/c2c3c(cc[n+]2Cc2ccccc2)c2ccccc2n3CCCc2ccccc2)cc1
769-P
  IC50: < 5 µM
HepG2 [21]
  IC50: < 5 µM
LoVo [22]
  IC50: < 5 µM
HT-29 [23]
  IC50: < 5 µM
KB [24]
  IC50: < 5 µM
786-0
  IC50: < 5 µM
HeLa [25]
  IC50: < 5 µM
Bel-7402
  IC50: < 5 µM
A549 [26]
  IC50: < 5 µM
BGC-823
  IC50: < 5 µM
A-375
  IC50: < 5 µM

## NCCCCNC(=O)c1cc2c(cn1)[nH]c1ccccc12
HL-60
  IC50: 8.6 µM
KB [5]; kb
  IC50: 8.6 µM
[27]
  IC50: 8.6 µM

## CC(C)OC(=O)c1cc2c([nH]c3ccccc32)c(-c2cccc3ccccc23)n1
PC-3 [9]
  IC50: 7.1 µM
SW480
  IC50: 2.7 µM
OVCAR-3
  IC50: 7.5 µM

## Cc1nc(C(=O)NCCCCNC(=O)c2ccccc2O)cc2c1[nH]c1ccccc12
HepG2 [28]
  IC50: 6.97 µM
HCT-116 [29]
  IC50: 6.97 µM
EJ
  IC50: 6.97 µM
NCI-H460 [30]
  IC50: 6.97 µM
SMMC-7721
  IC50: 6.97 µM
